Assay [1] deals with hen's egg white lysozyme. Kind of assay: Activity test of lysozyme X-irradiated in the presence of additives added before irradiation (a.r.). Type of assay: biochemical. To be noted: X (1000 Gy); a.r. additive 10 mM; lysozyme 0.1 mg/ml; unirradiated lysozyme = 100%. As to the method:
The hen's egg white lysozyme was purchased from Serva (Heidelberg, Germany), additives and all other substances were of the highest available grade. Lysozyme (0.1 mg/ml) and the additives (10 mM, except otherwise stated) were dissolved in dilute, air-saturated 1 mM sodium phosphate buffer pH 6.5 and were irradiated at 25° C. with X-rays (0-1 kGy) in the absence or presence of the additives. Activity tests of the lysozyme were performed as described in Shugar, 1952. The measurement of lysozyme activity and the ultra-violet inactivation of lysozyme. Biochim. Biophys. Acta 8, 302-309. were recorded in a Jasco UV/VIS spectrophotometer V-530. The activity test of lysozyme is simple and straightforward. The method described by Shugar uses the diluted unirradiated or irradiated enzyme and a cell suspension of Micrococcus lysodeikticus in a special activity buffer (66 mM sodium phosphate buffer with 17 mM NaCl, pH 7.0). The bacterium is suspended in an Erlenmeyer flask in the activity buffer at a concentration of 0.2 mg/ml. Before using the bacterial suspension in the test, the flask has to be swivelled to ensure homogeneous pipetting into the cuvette. Working briskly, the enzyme sample was pipetted to the bacterial solution, and using parafilm to tightly seal the cuvette, was homogeneously hand-mixed. Typical test mixtures (total of 3 ml) consisted of 2.98 ml bacterial solution plus 0.02 ml unirradiated enzyme sample in the absence or presence of additives, and 2.95 ml bacterial solution plus 0.05 ml irradiated enzyme (250 Gy) in the absence of additives, and 2.6 ml bacterial solution plus 0.4 ml irradiated enzyme (1000 Gy) in the absence of additives, to allow reasonable handling of the samples. The decrease in absorbance resulting from a breakdown of the bacteria by the enzyme is measured in a 3-ml cuvette in a spectrophotometer at a wavelength of 450 nm for a continuous time period of 3 min at 25° C. Different decreases in absorbance reflect different activities. The test may also be applied for lysozyme in the presence of antioxidants, since, owing to the high dilution of the samples (lysozyme+antioxidants) in the test and the wavelength used, the antioxidants will not disturb the results of the activity measurement. No further separation techniques are needed. Irradiations were performed in small 2-ml plastic cups at 25° C. The dosage measurement of X-rays was obtained by Fricke dosimetry (ferrous sulfate dosimetry). […] Afterwards the irradiated lysozyme was used in the activity assay as described in example 2 to determine the activity of the lysozyme. For comparison, activities are given in percent. The native, unirradiated lysozyme is used as reference and is considered to have 100% activity. […]

In assay [2] the test system is hydrogen peroxide in the blood of mice. In words: Hydrogen peroxide concentration in blood of 6 Gy irradiated mice (d-ROMs test). Format: in vivo, C57BL/6 mice. To be noted: Example 7; for Hydrogen peroxide concentration: three times in 24 h interval before 6 Gy, blood 72 h after irradiation. Here is the method:
For the following experiments C57BL/6 mice (21 gram body weight) were purchased from Japan SLC (Shizuoka, Japan). The mice were used for the experiments with an age of 8 weeks.
In this Experiment Six Groups were Built, Wherein Each Group Comprises 6 Mice: • a) the first group of mice were not treated and built the negative control, • b) the second group of mice built the positive control, thus the mice were treated with 6 Gy radiation and 72 hours after irradiation blood sampling was performed, • c) the third group of mice was treated with 150 mg Vitamin C per kg body weight, • d) the forth group of mice was treated with 15 mg Vitamin C per kg body weight, and • e) the fifth group of mice was treated with 15 mg of the composition in Example 6 per kg body weight.
The following experiment was performed for the first, second and fifth group in three independent experiments, for the third group in two independent experiments and for the forth group in one experiment.
Each mouse was placed in a well-ventilated acrylic container. The composition in Example 6 and Vitamin C, respectively suspended in 0.5 ml water was orally administered three times in a 24 hours interval to the mice of the third to fifth group. 24 hours after the third administration mice were exposed to 6 Gy whole body irradiation (WBI), given at a dose rate of 0.45 Gy/min at 150 kV and 5 mA (HITACHI MBR-1505R2, Tokyo, Japan). The beam was filtered through a 2 mm aluminum board. 72 hours after irradiation blood sampling was performed.
The d-ROMs (Reactive Oxygen Metabolites) test by using Free Carpe Diem photometric analytical system (Diacron, Grosseto, Italy) was used for the measurement of free radical metabolites in the blood samples of the mice. It is a spectrophotometric method that assesses overall oxidative stress by measuring total hydroperoxide levels, given that hydroperoxides are intermediate oxidative products of lipids, peptides, and amino acids. Briefly, 0.02 ml plasma was diluted in 1 ml acetate-buffered solution. Hydroperoxide groups react with the transition metal ions liberated from the proteins in the acidic medium, and are converted to alkoxyl and peroxyl radicals according to the Fenton reaction. These newly formed radicals, the quantities of which are directly proportional to those of the peroxides, were trapped chemically with 0.02 ml chromogen (N, N-diethyl-para-phenylendiamine), leading to the formation of the radical cation of this chromogen. The purple color resulting from this reaction over time was monitored in a spectrophotometer (Wismarll FRAS4, Tokyo, Japan) at 505 nm. The results of this method were expressed in μmol per liter. […]
c) the fifth group of mice, comprising 12 mice, was treated with 15 mg of a composition similar to that of Example 8 containing cysteine instead of cystine per kg body weight by oral administration, and
d) the sixth group of mice, comprising 12 mice, was treated with 15 mg of the composition according to Example 8 per kg body weight by intra-peritoneal administration.
Each mouse was placed in a well-ventilated acrylic container. The mice representing the positive control were exposed to 6 Gy whole body irradiation (WBI), given at a dose rate of 0.45 Gy/min at 150 kV and 5 mA (HITACHI MBR-1505R2, Tokyo, Japan). The beam was filtered through a 2 mm aluminum board. 72 hours after irradiation blood sampling was performed.
The composition in Example 8 was orally administered three times in a 24 hours interval to the mice of the second group in the concentration of 15 mg composition per kg body weight, i.e. the mice were pre-treated 3 days with the composition of Example 8 before irradiation. 24 hours after the third administration mice were irradiated using conditions as for positive control. 72 hours after irradiation blood sampling was performed. […]

SMILES strings stand for the structures.

With `O=C1O[C@H]([C@@H](O)CO)C(O)=C1O` [Ascorbic acid], the “% Activity” value in assay [1] was 90%. Moreover, in assay [2] (15 mg/kg oral, three times before 6 Gy, positive control 144.7), the “Difference (increase vs positive control)” value came to 5.1 µmol/L. Further, the Increase rate in assay [2] (15 mg/kg oral, three times before 6 Gy, relative to radiation-induced increase 19.7 μmol/l, listed as Vitamin C, 15 mg/kg) is 25.89%. The Hydrogen peroxide concentration was determined as 149.6 µmol/L in assay [2] (15 mg/kg oral) and 140.5 µmol/L in assay [2] (150 mg/kg oral). For the same molecule, the “Difference (decrease vs positive control)” value in assay [2] (150 mg/kg oral, three times before 6 Gy, positive control 144.7) was found to be 3.8 µmol/L. In assay [2] (150 mg/kg oral, three times before 6 Gy, relative to radiation-induced increase 19.7 μmol/l, listed as Vitamin C, 150 mg/kg), this molecule displayed a Reduction rate of 19.29%.

Consider `O=C[O-].[Na+]` [Sodium-Formate, sodium-formate], for which, in assay [1], the “% Activity” value came to 75%.

`OC[C@@H](O)[C@@H](O)[C@H](O)[C@H](O)CO` [Mannitol, mannitol]: in assay [1], the “% Activity” value was determined as 51%.

In the case of `N[C@@H](CCC(=O)N[C@@H](CS)C(=O)NCC(=O)O)C(=O)O` [Glutathione, glutathione], the “% Activity” value in assay [1] was determined as 58%.

(Values after US9089548B2, “Composition for protection against cell-damaging effects” (TIMA FOUNDATION, priority 2011, dated 2015).)
